Molecules are shown by their SMILES. Values after ≈ are worked out from the molar mass of the structure shown.

Conditions in one data set: not given
On to `O=S(=O)(O)OCCOc1ccc(Cl)cc1Cl`, for which the solubility (as a rule, the concentration that dissolves in the medium under given conditions) is 871000 µM (≈ 250000 µg/mL).

Staying with this data set, now noted: 20 °C.
Consider `CCS(=O)(=O)c1nnc(N(C)C(=O)NC)s1`, for which the solubility stood at 11400 µM (≈ 3000 µg/mL).

In turn, `Cc1cc(Cl)ccc1NC(=S)N(C)C` registered a solubility of 219 µM (≈ 50 µg/mL).

Compound `CC(=O)OC[C@H]([C@H](OC(C)=O)c1ccccc1)[N+](=O)[O-]` returned a solubility of 107 µM (≈ 30 µg/mL).

The compound `Clc1ccc(Sc2cc(Cl)c(Cl)cc2Cl)cc1` returned a solubility of 0.0926 µM (≈ 0.03 µg/mL).

Take `CON(C(=O)c1cc(C)oc1C)C1CCCCC1`: the solubility turned out to be 1.19 µM (≈ 0.3 µg/mL).

Staying with this data set, now noted: 25 °C.
`O=C1OCCC1N(C(=O)C1CC1)c1cccc(Cl)c1` (stereo not given) registered a solubility of 2050 µM (≈ 574 µg/mL).

As to `CCOC(=O)C(C)Oc1ccc(Oc2nc3ccc(Cl)cc3o2)cc1` (stereo not given), the solubility was determined as 2.59 µM (≈ 0.937 µg/mL).

In the case of `CCOC(=O)CNc1nc(Cl)nc(NC(C)C)n1`, the solubility was 2740 µM (≈ 750 µg/mL).

Compound `CCN(C(=O)Oc1cccc(NC(=O)OC(C)C)c1)c1ccccc1` gave a solubility of 8.76 µM (≈ 3 µg/mL). This solubility is about 310-fold lower than that of the compound before.

The record behind these values is the OPERA property sets (Mansouri et al. 2018).
